Experimental findings from patent US20040039054A1, “Use of L-carnitine and derivatives for reducing ceramide levels and potentiating antiretroviral drugs” (SIGMA-TAU INDUSTRIE, priority 1995, published 2004) are described below.

Structures are written as SMILES.

Assay [1] concerns ceramide. The assay is described as follows: Ceramide at muscle cell level in muscle biopsy homogenates of AIDS subjects. Type of assay: in vivo, human. The conditions noted are these: muscle biopsy before treatment (baseline), individual patients and group mean. The method, then:
(§1) Four subjects with AIDS were treated with 600 mg of AZT daily by mouth. Of these, two were also treated with L-carnitine 3 g daily. The total duration of the treatment was 6 months. Muscle biopsies were performed before and after treatment. The ceramide present at muscle cell level was determined before and after treatment, after sonicating and homogenizing the biopsy material. The viral load was determined in the same muscle homogenates, as described in Example 1.

Assay [2] has as its system lymphocyte ceramide. The assay is described as follows: Lymphocyte ceramide by DAG (diacylglycerol) kinase assay in AIDS patients. The assay is classed as in vivo, human.
The test system of assay [3] is HIV. Briefly: Viral load in muscle biopsy homogenates of AIDS subjects. Type of assay: in vivo. To be noted: individual patients and group mean. The method, then:
The determinations were carried out prior to the combined treatment, while patients were taking only AZT (T0), after 4 weeks of therapy with the L-carnitine-AZT combination (T1) and one month after discontinuation of treatment with L-carnitine (T2), leaving the patients on AZT alone. TCD4 lymphocytes were measured by flow cytometry by means of a specific monoclonal antibody (number of lymphocytes per mm^3) and the apoptotic lymphocytes by flow cytometry after staining with propydium iodide, quantifying the cells with hypodiploid nuclei (number of lymphocytes per 50,000 cells). The viral load (number of viral particles per ml of serum) was determined by quantifying HVI-1 RNA by means of a polymerase chain reaction (Amplicor HIV detection system by Roche). The Wilcoxon test was used for the statistical processing.
as §1

On to `Cc1cn([C@H]2C[C@H](N=[N+]=[N-])[C@@H](CO)O2)c(=O)[nH]c1=O` [AZT, zidovudine], for which the “Pre-treatment ceramide (pmoL/mg protein)” value in assay [1] is 92 pmoL/mg protein. Besides, in assay [2] (T0: prior to combination treatment, patients on AZT only, 13 patients), the “levels of lymphocyte ceramide, T0” value was determined as 48±8 pmol/10^6 lymphocytes. Moreover, in assay [2] (T2: one month after discontinuation of L-carnitine, patients on AZT alone), the “levels of lymphocyte ceramide, T2” value is 38±9 pmol/10^6 lymphocytes. Further, in assay [3] (muscle homogenate after 6 months, AZT 600 mg daily by mouth, with or without L-carnitine 3 g daily), the “Post-treatment HIV (viral particles/mg protein)” value is 4,950 viral particles/mg protein. The “Pre-treatment HIV (viral particles/mg protein)” value in assay [3] (muscle homogenate before treatment (baseline)) is 4,850 viral particles/mg protein.
